Test results from US8338423B2, “Compositions for the treatment of hyperphenylalaninemia” (Universidad de Zaragoza, priority 2007, dated 2012).

Experiments:
wt-PAH = target: T1, wt-PAH (Homo sapiens, UniProt P00439); test: Enzyme kinetic analysis of recombinant PAH activity; assay type: biochemical; details: for reduction in Vmax (activity dependence on L-Phe) / inhibition of PAH activity / increase of Km for BH4 / S0.5, L-Phe / Vmax, L-Phe / h (Hill coefficient), L-Phe / Vmax, BH4, No preincubation / Vmax, BH4, Preincubation: 100 μM compound; for reduction in Vmax (activity dependence on L-Phe): 75 μM BH4; for inhibition of PAH activity: 100 μM L-Phe, 10 μM BH4, L-Phe preincubation (FIG. 3A); for increase of Km for BH4: preincubation with 1 mM L-Phe; for S0.5, L-Phe / Vmax, L-Phe / h (Hill coefficient), L-Phe: 75 μM BH4, L-Phe 0-1 mM, preincubated; for S0.5, L-Phe / Vmax, L-Phe / h (Hill coefficient), L-Phe / Vmax, BH4, No preincubation / Vmax, BH4, Preincubation: mean ± S.E.; for Vmax, BH4, No preincubation / Vmax, BH4, Preincubation: 1 mM L-Phe, BH4 0-200 μM; for Vmax, BH4, No preincubation: not preincubated; for Vmax, BH4, Preincubation: preincubated with L-Phe; for Ki: using standard equations for competitive inhibition, read-out: Kl vs BH4 (competitive inhibition)
T1 construct: made in house; host or cells: E. coli
T1 sequence (P00439 1-452): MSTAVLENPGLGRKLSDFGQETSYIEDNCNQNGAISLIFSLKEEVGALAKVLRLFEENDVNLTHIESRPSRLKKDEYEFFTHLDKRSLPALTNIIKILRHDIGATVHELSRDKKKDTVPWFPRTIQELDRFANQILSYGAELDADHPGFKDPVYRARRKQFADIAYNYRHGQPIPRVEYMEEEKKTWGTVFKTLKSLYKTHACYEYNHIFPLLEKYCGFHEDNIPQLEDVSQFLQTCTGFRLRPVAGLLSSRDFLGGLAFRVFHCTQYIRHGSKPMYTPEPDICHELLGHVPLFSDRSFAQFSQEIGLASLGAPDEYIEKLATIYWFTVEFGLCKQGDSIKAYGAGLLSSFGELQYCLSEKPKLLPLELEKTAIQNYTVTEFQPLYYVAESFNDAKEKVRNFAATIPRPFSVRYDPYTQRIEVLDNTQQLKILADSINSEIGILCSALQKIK
Experimental: PAH activity was measured at 25° C. for 1 min essentially as described (BjØrgo E, et al., Eur. J. Biochem. 1988; 257(1):1-10). Tetrameric hPAH (1-2 μg) was incubated in 20 mM Hepes 0.2 M NaCl pH 7.0, containing catalase (0.04 mg/ml), 0.1-1 mM L-Phe, DMSO 2.5% and 0-100 μM of each compound. After 4 min incubation at 25° C., ferrous ammonium sulphate (100 μM) was added, and the reaction was triggered after 1 min by adding BH4 (10-200 μM) in the presence of 5 mM DTT. In some experiments, the preincubation step with L-Phe was omitted and L-Phe was added together with BH4 to analyze the L-Phe induced activation of the enzyme. To determine the kinetic parameters for BH4 and L-Phe, BH4 was used at 0-200 μM (at fixed 1 mM L-Phe) and L-Phe at 0-1 mM (BH4 was fixed at 75 μM). L-Tyr formed was quantified by HPLC and fluorimetric detection (DØskeland A P, et al., J. Biol. Chem. 1984; 259:11242-11248). The saturation curves were fitted to hyperbolic (for BH4) or sigmoidal (for L-Phe) kinetic models by using Sigma Plot v.9.0 (SPSS Inc).
PAH enzyme kinetics have been analyzed in the presence of the four hit compounds in order to know if ligand binding interferes with PAH catalytic activity. Activity measurements were performed in the presence of high (100 μM) concentrations of ligands with or without preincubating PAH enzyme with L-Phe prior to activity assays. L-Phe preincubation of human PAH lead to activation of the enzyme and manifestation of positive cooperativity by the substrate, and it is thought to play an important regulatory role on PAH activity in vivo (Pey A L, et al., In: Blau N. ed. Advances in PKU and BH4, 2006). […] It is worth noting that under these conditions, ligand concentration equalled L-Phe concentration (100 μM), and 10-fold exceeded BH4 concentration (10 μM). Except for compound 13, this inhibition was dramatically weakened when the preincubation step with L-Phe (100 μM) was ommited. Moreover, when L-Phe and BH4 are used at saturating concentrations, inhibition was abolished (FIG. 3B), indicating a rather weak and reversible inhibitory effect exerted by these ligands.
Further kinetic analyses were performed to determine if the weak inhibition was due to competition for the substrate and/or cofactor binding sites. Activity dependence on BH4 and L-Phe concentration was measured in the presence of 100 μM compound concentration, and the experimental data fitted to hyperbolic (BH4) or sigmoidal (L-Phe) kinetic models. The fitting parameters obtained from these experiments are compiled in Table 2. […] These values are substantially higher than those obtained for likely physiological inhibitors of PAH, such as 7S-BH4 and BH2 (Kl˜2-5 μM and ˜17 μM, respectively).

[1] = test system: wt-PAH and I65T and R68S mutants expressed in A293 cells; test: PAH activity in extracts of transiently transfected A293 cells; assay type: cell-based, human; details: 40 μM compound, 24 h, vs DMSO 1% controls (FIG. 4A)
Experimental: Human embryonic kidney cells (A293; purchased from Invitrogen) were grown in Dulbecco's Modified Eagle's Medium (DMEM) containing 4.5 g/l glucose, 10% (v/v) fetal calf serum, 2 mM L-glutamine, 100 i.u./ml penicillin, 100 μg/ml streptomycin and 0.25 mg/ml G-418. A293 cells were transiently transfected with 1 μg of pcDNA3-PAH expression vector (wt or mutant PAH constructs), using the lipofectamine system (Gibco, Invitrogen) as described by the manufacturer. Pharmacological chaperones were added after 5 h of transfection (final concentration 40 μM ligand in DMSO 1%), incubated for 24 h and cells were then harvested and stored at −80° C. […]
Western blot analyses were performed after SDS-PAGE (10% acrylamide) using as primary antibody a monoclonal mouse ant-human PAH (Chemicon, Australia) and as secondary antibody a goat anti-mouse HRP conjugate (Bio-Rad, US). Detection was performed using a chemiluminiscence method (ECL; Amersham Biosciences) and quantified an a Fluor-S™ Multilmager (Bio-Rad, US) using Quantify one v. […]
After transfection of A293 cells with constructs carrying wt-PAH and PKU mutants cDNA, the cells were incubated for 24 h in the presence or absence of 40 μM of hit compounds 11 and 13. Cell were harvested and immunoreactive PAH protein and PAH activity were measured in soluble cell extracts. […]

reduction in Vmax (activity dependence on L-Phe) (wt-PAH)	inhibition of PAH activity (wt-PAH)	increase of Km for BH4 (wt-PAH) [%]	S0.5, L-Phe (wt-PAH) [µM]	Vmax, L-Phe (wt-PAH) [μmol L-Tyr/min·mg]	h (Hill coefficient), L-Phe (wt-PAH)	Vmax, BH4, No preincubation (wt-PAH) [μmol L-Tyr/min·mg]	Vmax, BH4, Preincubation (wt-PAH) [μmol L-Tyr/min·mg]	Ki (wt-PAH) [µM]	SMILES	PAH activity enhancement [1]
about 13%	specially significant	~20	118 ± 5	3.02 ± 0.08	2.6 ± 0.3	0.80 ± 0.05	3.52 ± 0.41	~500	Cc1onc(-c2ccccc2)c1-c1n[nH]c(N)c1C#N [Compound 5, 5-amino-3-(5-methyl-3-phenyl-4-isoxazolyl)-1H-pyrazole-4-carbonitrile]	–
–	–	–	156 ± 10	3.77 ± 0.13	1.8 ± 0.1	0.81 ± 0.05	2.96 ± 0.10	–	Cn1cnc([N+](=O)[O-])c1N1CCN(C(c2ccccc2)c2ccccc2)CC1 [Compound 6, 1-benzhydryl-4-(1-methyl-4-nitro-1H-imidazol-5-yl)piperazine]	–
–	–	–	138 ± 8	3.57 ± 0.11	1.9 ± 0.2	0.86 ± 0.03	2.87 ± 0.14	–	Nc1c(-c2ccc3ccccc3n2)c2ccc([N+](=O)[O-])cc2c(=O)n1Cc1ccccc1 [Compound 11, 3-amino-2-benzyl-7-nitro-4-(2-quinolyl)-1,2-dihydroisoquinolin-1-one]	60-100%
~30%	specially significant	~50	131 ± 11	2.43 ± 0.10	1.6 ± 0.2	0.85 ± 0.07	3.11 ± 0.16	~200	Cc1ccnc(-n2c(=S)[nH]c3sc(C)c(C)c3c2=O)c1 [Compound 13, 5,6-dimethyl-3-(4-methyl-2-pyridinyl)-2-thioxo-2,3 dihydrothieno[2,3-d]pyrimidin-4(1H)-one]	40-50%
